In brackets after ≈: the same amount, converted by molar mass. Where two headings read alike, the source gives them in different places.
Assays:
[1] = system: Aspergillus flavus (ATCC 204304); assay: CLSI MIC; format: cell-based
[2] = system: A. fumigatus (ATCC 13073 [strain NIH 5233]); assay: MIC against the strain used in vivo; format: cell-based; conditions: Aspergillus fumigatus, ATCC13073
[3] = system: Candida krusei (ATCC 6258); assay: CLSI MIC; format: cell-based; conditions: Pichia kudriavzevii, ATCC6258
[4] = system: 96 clinically isolated A. fumigatus strains; assay: EUCAST MIC against clinical isolates (visual); format: cell-based, Aspergillus fumigatus; conditions: 96 clinical isolates; for MIC Range / MIC50 / MIC90 / MIC: visual; for MIC50 / MIC90 / MIC: Aspergillus fumigatus
Description: (§1) The antifungal activity of PC1244 was further evaluated against 96 clinical isolates (obtained from Saint Louis Hospital, Paris, France [50 isolates], and the North West England Mycology Reference Centre, Manchester, UK [46 isolates]). […] .

[5] = system: Aspergillus niger (ATCC 1015); assay: EUCAST MIC; format: cell-based
[6] = system: Penicillium citrinum (ATCC 9849); assay: CLSI MIC; format: cell-based; conditions: ATCC9849, 1 strain
[7] = system: Candida glabrata (ATCC 36583, R363); assay: CLSI MIC; format: cell-based; conditions: Nakaseomyces glabratus
[8] = system: Penicillium chrysogenum (ATCC 9480); assay: CLSI MIC; format: cell-based; conditions: ATCC9480, 1 strain
A. fumigatus isolates = system: A. fumigatus isolates; parameters: method as in PMID 12202554; conditions: MFC = lowest dilution yielding less than 3 colonies; cited from earlier work
[9] = system: Candida albicans AR (20183.073, 20186.025); assay: CLSI MIC; format: cell-based
[10] = system: Aspergillus carbonarius (ATCC 8740); assay: CLSI MIC; format: cell-based
[11] = system: Cryptococcus gattii (clinical isolate); assay: EUCAST MIC (EDef 7.2); format: cell-based; conditions: 1 strain
in vivo = conditions: mouse
[12] = system: sterol composition of A. fumigatus (NCPF2010); assay: A. fumigatus sterol analysis (GC-MS); format: cell-based, Aspergillus fumigatus; conditions: 2 h
A. fumigatus ATCC 204305 = assay: EUCAST MIC, quality control strain; format: cell-based; conditions: Aspergillus fumigatus, ATCC204305; quality control strain ATCC 204305
Description: as §1

[13] = system: Candida parapsilosis (ATCC 22019); assay: CLSI MIC; format: cell-based; conditions: ATCC22019, 1 strain, MIC = 50% inhibition of fungal growth
A. fumigatus CYP51B = A. fumigatus CYP51B (Aspergillus fumigatus, UniProt E9QY26); assay: CYP51 reconstitution assay (sterol 14α-demethylase inhibition)
Chain of A. fumigatus CYP51B (E9QY26 whole entry): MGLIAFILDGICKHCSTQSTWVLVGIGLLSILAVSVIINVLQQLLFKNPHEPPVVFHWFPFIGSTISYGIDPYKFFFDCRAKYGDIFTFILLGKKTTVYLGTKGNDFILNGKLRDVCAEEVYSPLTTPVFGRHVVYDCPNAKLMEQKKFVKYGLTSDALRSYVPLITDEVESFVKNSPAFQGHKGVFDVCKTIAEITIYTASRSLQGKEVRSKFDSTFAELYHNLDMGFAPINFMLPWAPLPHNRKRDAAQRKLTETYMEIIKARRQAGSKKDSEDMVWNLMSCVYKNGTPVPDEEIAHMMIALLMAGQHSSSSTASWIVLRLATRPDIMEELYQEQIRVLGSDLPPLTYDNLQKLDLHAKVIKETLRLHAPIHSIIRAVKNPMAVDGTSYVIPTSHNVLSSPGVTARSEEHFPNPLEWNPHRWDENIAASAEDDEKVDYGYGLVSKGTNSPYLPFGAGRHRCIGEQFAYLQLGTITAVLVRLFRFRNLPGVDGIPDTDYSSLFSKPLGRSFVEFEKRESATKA
Description: (§2) The test agent was added to a mixture of 0.5 μM CYP51, 1 μM A. fumigatus cytochrome P450 reductase isoenzyme 1 (AfCPR1), 50 μM eburicol, 4% (wt/vol) 2-hydroxypropyl-β-cyclodextrin, 0.4 mg/ml isocitrate dehydrogenase, 25 mM trisodium isocitrate, 50 mM NaCl, 5 mM MgCl2, and 40 mM 3-(N-morpholino) propanesulfonic acid (MOPS; pH of ∼7.2). The mixtures were then incubated at 37°C for 10 min prior to initiation with 4 mM β-NADPHNa4, followed by shaking for 20 min at 37°C. Sterol metabolites were recovered by extraction with ethyl acetate followed by derivatization with 0.1 ml N,O-bis(trimethylsilyl)trifluoroacetamide: trimethylchlorosilane (99:1) and 0.3 ml anhydrous pyridine prior to analysis by gas chromatography-mass spectrometry.

A. fumigatus CYP51A = A. fumigatus CYP51A (Aspergillus fumigatus, UniProt Q4WNT5); assay: as above
Chain of A. fumigatus CYP51A (Q4WNT5 whole entry): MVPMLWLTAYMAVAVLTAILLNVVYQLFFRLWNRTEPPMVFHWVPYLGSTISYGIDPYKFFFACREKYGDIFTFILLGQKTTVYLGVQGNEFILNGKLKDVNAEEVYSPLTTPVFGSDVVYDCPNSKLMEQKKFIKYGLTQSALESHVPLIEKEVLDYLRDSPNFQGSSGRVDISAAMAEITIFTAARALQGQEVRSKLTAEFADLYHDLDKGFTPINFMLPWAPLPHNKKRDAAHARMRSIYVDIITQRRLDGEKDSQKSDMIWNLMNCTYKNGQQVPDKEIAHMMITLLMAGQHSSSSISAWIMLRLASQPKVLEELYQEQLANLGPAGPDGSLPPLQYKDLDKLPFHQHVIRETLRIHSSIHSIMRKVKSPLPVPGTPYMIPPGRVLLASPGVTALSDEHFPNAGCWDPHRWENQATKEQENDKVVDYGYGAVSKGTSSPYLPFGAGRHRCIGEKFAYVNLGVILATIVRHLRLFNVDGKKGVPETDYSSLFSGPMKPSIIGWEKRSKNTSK
Description: as §2

[14] = system: A. fumigatus (ATCC 13073); assay: In vivo persistence of action: single intranasal prophylactic dose 16 h before inoculation; conditions: PC1244 0.4 mg/ml, POS 0.8 mg/ml intranasal 16 h before inoculation; lungs 8 h after
[15] = system: A. fumigatus (ATCC 13073 [strain NIH 5233]); assay: In vivo antifungal activity, late intervention (intranasal, days 1-3 postinfection), temporarily neutropenic mice; conditions: for inhibition of GM in serum: 0.08 mg/ml (2.8 μg/mouse) intranasal once daily days 1-3; for inhibition of fungal load (CFU) in the lung vs vehicle: 0.08 mg/ml, 35 μl intranasal once daily days 1-3 postinfection
23 pathogenic fungi = format: cell-based; conditions: broad spectrum of pathogenic fungi
[16] = in vivo
[17] = system: A. fumigatus (ATCC 13073 [strain NIH 5233]); assay: In vivo extended prophylaxis (intranasal, days -7 to 0) in infected immunocompromised mice; conditions: 0.0032 mg/ml (0.11 μg/mouse), compared to late intervention at the same dose
Description: The test agents, suspended in physiological saline, were administered intranasally (35 μl, approximately 17.5 μl each in each nostril) once daily on days 1, 2, and 3 postinfection. […] As the injection volume was fixed and the body weight changed every day, especially after infection, the accurate dose unit was the number of micrograms per mouse. However, as the average body weight after immunosuppression and just before infection was 20 g, we also calculated the estimated dose in milligrams per kilogram.

[18] = ATCC204304, CLSI, 1 strain, read-out: MIC
[19] = ATCC1015, EUCAST, 1 strain, read-out: MIC
[20] = ATCC8740, CLSI, 1 strain, read-out: MIC

## C[C@@H](c1ncncc1F)[C@](O)(Cn1cncn1)c1ccc(F)cc1F [Voriconazole, voriconazole]
[1]; ATCC204304
  MIC: 2 µg/mL (≈ 5.73 µM)
[2]
  MIC: 0.5 µg/mL (≈ 1.43 µM)
[3]
  MIC: 0.25 µg/mL (≈ 0.716 µM)
[4]
  MIC Range: 0.06 to 4 µg/mL
  MIC50: 0.5 µg/mL (≈ 1.43 µM)
  MIC90: 1 µg/mL (≈ 2.86 µM)
[4]; read-out: MIC Geometric mean
  MIC: 0.42 µg/mL (≈ 1.2 µM)
[4]; read-out: MIC Mode
  MIC: 0.5 µg/mL (≈ 1.43 µM)
[5]; ATCC1015
  MIC: 1 µg/mL (≈ 2.86 µM)
[6]
  MIC: > 8 µg/mL
[7]; ATCC36583
  MIC: 8.13 µg/mL (≈ 23.3 µM)
[8]
  MIC: 2 µg/mL (≈ 5.73 µM)
A. fumigatus isolates
  range of MFCs for inhibition of 90% of isolates tested (MFC90): 0.5 to 4 µg/mL
[9]
  MIC: 10 µg/mL (≈ 28.6 µM)
[10]; ATCC8740
  MIC: 0.5 µg/mL (≈ 1.43 µM)

## CC[C@@H]([C@H](C)O)n1ncn(-c2ccc(N3CCN(c4ccc(OC[C@@H]5CO[C@@](Cn6cncn6)(c6ccc(F)cc6F)C5)cc4)CC3)cc2)c1=O [Posaconazole, posaconazole]
[11]
  MIC: 0.5 µg/mL (≈ 0.713 µM)
[1]; [18]
  MIC: 0.13 µg/mL (≈ 0.186 µM)
[4]
  MIC Range: 0.016 to 2 µg/mL
  MIC50: 0.063 µg/mL (≈ 0.0899 µM)
  MIC90: 0.5 µg/mL (≈ 0.713 µM)
[4]; read-out: MIC Geometric mean
  MIC: 0.1 µg/mL (≈ 0.143 µM)
[4]; read-out: MIC Mode
  MIC: 0.032 µg/mL (≈ 0.0457 µM)
In vivo
  concentration at 24 h: 15.6 to 125 ng/mL
[5]; [19]
  MIC: 0.2 µg/mL (≈ 0.285 µM)
[12]; compound at 0.0001 μg/ml
  Sterol composition: Eburicol: 2.2 ± 1.2%
  Sterol composition: Ergost-5,7-dienol: 3.3 ± 1.9%
  Sterol composition: Ergosterol: 94.5 ± 0.1%
  Sterol composition: Lanosterol: 0%
[12]; compound at 0.001 μg/ml
  Sterol composition: Eburicol: 5.9 ± 0.5%
  Sterol composition: Ergost-5,7-dienol: 3.9 ± 0.6%
  Sterol composition: Ergosterol: 87.2 ± 0.7%
  Sterol composition: Lanosterol: 3.0 ± 0.9%
[12]; compound at 0.01 μg/ml
  Sterol composition: Eburicol: 18.3 ± 1.1%
  Sterol composition: Ergost-5,7-dienol: 0%
  Sterol composition: Ergosterol: 74.7 ± 0.8%
  Sterol composition: Lanosterol: 7.0 ± 0.3%
[12]; compound at 0.1 μg/ml
  Sterol composition: Eburicol: 23.4 ± 0.8%
  Sterol composition: Ergost-5,7-dienol: 0%
  Sterol composition: Ergosterol: 67.8 ± 0.3%
  Sterol composition: Lanosterol: 8.8 ± 0.5%
[12]; compound at 1 μg/ml
  Sterol composition: Eburicol: 23.8 ± 1.3%
  Sterol composition: Ergost-5,7-dienol: 0%
  Sterol composition: Ergosterol: 67.4 ± 1.5%
  Sterol composition: Lanosterol: 8.8 ± 0.4%
A. fumigatus ATCC 204305
  MIC: 0.25 µg/mL (≈ 0.357 µM)
[13]
  MIC: 0.25 µg/mL (≈ 0.357 µM)
A. fumigatus CYP51B
  Ki: < 1 nM
[6]
  MIC: 0.5 µg/mL (≈ 0.713 µM)
[7]; ATCC36583, CLSI, 2 strains, MIC = 50% inhibition, two individual values for PC1244, read-out: MIC
  MIC: 0.5 µg/mL (≈ 0.713 µM)
[8]
  MIC: 0.13 µg/mL (≈ 0.186 µM)
A. fumigatus CYP51A
  Ki: < 1 nM
A. fumigatus isolates
  range of MFCs for inhibition of 90% of isolates tested (MFC90): 0.06 to 2 µg/mL
[14]
  number of CFU in the lung: did not
[9]; CLSI, 2 azole (fluconazole and voriconazole) resistant strains, MIC = 50% inhibition, two individual values for PC1244, read-out: MIC
  MIC: 8.13 µg/mL (≈ 11.6 µM)
[10]; [20]
  MIC: 0.063 µg/mL (≈ 0.0899 µM)
[15]
  inhibition of GM in serum: −11%
  inhibition of fungal load (CFU) in the lung vs vehicle: 39%
[15]; mouse, in vivo
  log10 ID fold higher than that of PC1244: 143 fold

## Cc1cc(N2CCN(c3ccc(C(=O)N[C@H]4CCCC[C@@H]4O)cc3)CC2)ccc1OC[C@@H]1CO[C@@](Cn2cncn2)(c2ccc(F)cc2F)C1 [PC1244, 4-(4-(4-(((3R,5R)-5-((1H-1,2,4-triazol-1-yl)methyl)-5-(2,4-difluorophenyl)tetrahydrofuran-3-yl)methoxy)-3-methylphenyl)piperazin-1-yl)-N-((1S,2S)-2-hydroxycyclohexyl)benzamide]
[11]
  MIC: 0.5 µg/mL (≈ 0.728 µM)
[1]; [18]
  MIC: 0.25 µg/mL (≈ 0.364 µM)
23 pathogenic fungi
  MIC Range: <0.0078 to 2 µg/mL
[2]; strain ATCC 13073, read-out: MIC
  MIC: 0.063 µg/mL (≈ 0.0917 µM)
[3]; CLSI, 1 strain, read-out: MIC
  MIC: 0.13 µg/mL (≈ 0.189 µM)
[16]
  oral availability: much less oral availability than posaconazole
[4]
  fold more potent than VRC on the basis of geometric mean MICs: 6.2 fold
  MIC Range: 0.008 to 2 µg/mL
  MIC50: 0.032 µg/mL (≈ 0.0466 µM)
  MIC90: 0.5 µg/mL (≈ 0.728 µM)
[4]; read-out: MIC Geometric mean
  MIC: 0.067 µg/mL (≈ 0.0976 µM)
[4]; read-out: MIC Mode
  MIC: 0.016 µg/mL (≈ 0.0233 µM)
In vivo
  concentration at 2 h: 111 to 303 ng/mL
  concentration at 8 h: 249 to 339 ng/mL
  concentration at 24 h: 41.5 to 50.7 ng/mL
[5]; [19]
  MIC: 0.5 µg/mL (≈ 0.728 µM)
[12]; compound at 0.0001 μg/ml
  Sterol composition: Eburicol: 2.5 ± 1.1%
  Sterol composition: Ergost-5,7-dienol: 4.6 ± 1.8%
  Sterol composition: Ergosterol: 91.3 ± 0.1%
  Sterol composition: Lanosterol: 1.7 ± 0.7%
[12]; compound at 0.001 μg/ml
  Sterol composition: Eburicol: 3.4 ± 1.2%
  Sterol composition: Ergost-5,7-dienol: 4.6 ± 0.8%
  Sterol composition: Ergosterol: 89.2 ± 0.2%
  Sterol composition: Lanosterol: 2.8 ± 0.6%
[12]; compound at 0.01 μg/ml
  Sterol composition: Eburicol: 14.7 ± 1.5%
  Sterol composition: Ergost-5,7-dienol: 0%
  Sterol composition: Ergosterol: 76.8 ± 2.6%
  Sterol composition: Lanosterol: 8.5 ± 1.1%
[12]; compound at 0.1 μg/ml
  Sterol composition: Eburicol: 26.7 ± 0.8%
  Sterol composition: Ergost-5,7-dienol: 0%
  Sterol composition: Ergosterol: 61.0 ± 1.6%
  Sterol composition: Lanosterol: 12.3 ± 0.8%
[12]; compound at 1 μg/ml
  Sterol composition: Eburicol: 28.2 ± 1.3%
  Sterol composition: Ergost-5,7-dienol: 0%
  Sterol composition: Ergosterol: 58.7 ± 2.2%
  Sterol composition: Lanosterol: 13.1 ± 0.9%
[13]
  MIC: 0.25 µg/mL (≈ 0.364 µM)
[17]
  effect on fungal load and biomarkers: high levels of inhibitory effects
A. fumigatus CYP51B
  IC50: 230 nM
  Ki: < 1 nM
[6]
  MIC: 0.5 µg/mL (≈ 0.728 µM)
[8]
  MIC: 0.13 µg/mL (≈ 0.189 µM)
A. fumigatus CYP51A
  IC50: 270 nM
  Ki: < 1 nM
[14]
  GM levels in the lung: significant inhibition
  number of CFU in the lung: significant inhibition
[10]; [20]
  MIC: 0.063 µg/mL (≈ 0.0917 µM)
[15]
  inhibition of GM in serum: 82%
  inhibition of fungal load (CFU) in the lung vs vehicle: 97%
[15]; infection-dependent increase
  CXCL1 level in BALF: reduced
  interleukin-6 (IL-6) level in serum: reduced
  tumor necrosis factor alpha (TNF-α) level in serum: reduced
[15]; mouse, in vivo
  ID50 (GM in BALF) fold lower than that of POS: 6.7 fold
[15]; pilot study
  A. fumigatus PCR products in lung tissue: inhibited the accumulation of PCR products
